Measured values from PMC9170106, “Pre-clinical evaluation of LASSBio-1491: From in vitro pharmacokinetic study to in vivo leishmanicidal activity” (PLoS ONE, 2022).
“And” between values parts separate entries of the source, which are not always exact repeats. Identical values can stand only once.

Tests used:
[1] = system: L. major amastigote LV39 substrain; test: In vitro activity against intramacrophage amastigotes, LV39; assay type: cell-based; details: Leishmania major
Method: (§1) Briefly, female BALB/c mice (6 to 8 weeks old) received 1 mL sterile of 3% sodium thioglycolate by intraperitoneal route (i.p.) and were euthanized after 4 days. The intraperitoneal lavage was collected from the peritoneal cavity of mice using sterile PBS and cells were counted in a hemocytometer. Peritoneal adherent cells (macrophages) were plated at a concentration of 2 x 10^5 cells per well in 24-well culture plates containing glass coverslips. Subsequently, L. major promastigotes (harvested after the third passage) were added at a concentration of 2 x 10^6 parasites per well, aiming to infect the macrophages. […] After 24 hours in an incubator at 37 °C and 5% CO2, the coverslips were washed with PBS and stained with Giemsa-May Grünwald. The number of amastigotes in 100 macrophages was determined by counting using optical microscope (100x objective). Furthermore, the cell culture supernatant was also collected for nitrite measurement using the Griess reaction, an indirect way of determining the concentration of nitric oxide in the supernatant of infected macrophages from the experimental groups. The results obtained were expressed as the mean ± S.E.M. of the number of amastigotes or nitrite concentration from duplicate cultures of representative assays, with the data analyzed by ANOVA and Dunnett hoc tests, considering a significance level of p < 0.05. In addition, the linear regression analysis from the Kc values at employed concentrations was used to determine the IC50.

spleen cells = test: Cytotoxicity against spleen cells (propidium iodide); details: Mus musculus, 24 h
Method: To carry out the suspension preparation of spleen cells, BALB/c mice were euthanized, and an incision was made to remove the spleen. The spleens were macerated using the end of the plungers from a 1 mL syringe in a 70 μm strainer placed in a Petri dish containing RPMI medium. […] After incubation for 4 min at room temperature, the cells were washed with RPMI medium. Subsequently, samples from three animals were pooled and the cell suspension was passed through a 40 μm strainer. Cells were counted in a Neubauer chamber and splenocytes were plated at a concentration of 5 x 10^5 cells per well in a 96-well culture plate. […] Moreover, spleen cells were also cultured just with medium (free of compounds or vehicle) or with DMSO 0.1%. […] After, the propidium iodide incorporation was performed according to the instructions of the Propidium Iodide Kit (Sigma, Copenhagen, Denmark). The splenocytes were analyzed in a FACS Canto II flow cytometer. The data files were saved using FACS Diva software and data analysis was done using Flow Jo software. […] Data obtained from experiments were expressed as the mean ± standard error of the mean (S.E.M.) of spleen died cells and statistical differences between the treated and the vehicle groups of experiments were evaluated by ANOVA and Dunnett hoc tests.

[2] = system: L. major promastigote 5-ASKH substrain; test: In vitro activity against promastigotes, 5-ASKH; assay type: cell-based, Leishmania major
Method: (§2) L. major promastigotes LV39 (MRHO/SU/59/P) were obtained from João […] Preto Medical School- USP. L. major IOC/[…] promastigotes (MHOM/SU/1973/5-ASKH) were obtained from Leishmania collection of the Oswaldo Cruz Institute-Fiocruz. L. major promastigotes LV39 (MRHO/SU/59/P) and L. major IOC/[…] (MHOM/SU/1973/5-ASKH) were grown in a Schneider's medium (Sigma-Aldrich, St. […] The determination of the leishmanicidal activity of LASSBio-1491 against L. major promastigotes was carried out according to the methodology described by […] and colleagues (1996). […] After 48h of incubation in a Biochemical Oxygen Demand (B.O.D.) incubator, the promastigotes were counted using a hemocytometer. The results obtained were expressed as the mean ± S.E.M. of the number of promastigotes from triplicate cultures of representative assays, with the data analyzed by ANOVA and Dunnett hoc tests, considering a significance level of p < 0.05.

L. major LV39 = test: In vivo activity against Leishmania major LV39 substrain; design: species or system BALB/c mice
Method: Thus, 6-week-old female BALB/c mice weighing approximately 20 g were used. […] Briefly, ketamine (80mg/kg) and xylazine (8 mg/kg) were simultaneously used to anesthetize the mice by intraperitoneal injection. The promastigotes of L. major LV39 substrain in the stationary phase, harvested after the third passage (obtained from parasites frozen), were inoculated subcutaneously at a concentration of 1x 10^5 parasites in the right ear of mice. […] The size of the lesions was measured using a pachymeter. Thiopental (150 mg/kg, i.p.) was used to euthanize the mice and the quantitative limiting-dilution assay was used to determine the parasite burden of infected ears and draining lymph nodes. The results obtained from experiments were expressed as the mean ± S.E.M. with the data analyzed (size of the lesions or parasite burden) by ANOVA and Dunnett hoc tests, considering a significance level of p < 0.05.

[3] = system: L. major promastigote LV39 substrain; test: In vitro activity against promastigotes, LV39; assay type: cell-based; details: Leishmania major
Method: as §2

[4] = system: L. major amasitigote 5-ASKH substrain; test: In vitro activity against intramacrophage amastigotes, 5-ASKH; assay type: cell-based; details: Leishmania major
Method: as §1

[5] = Aqueous solubility by UV spectroscopy; assay type: physicochemical; details: phosphate buffer solution, buffer solution pH 7.4, 37 °C
Method: The solubility assay was carried out by correlating the concentration with the absorbance obtained by ultraviolet. First, a stock solution of the compound was prepared by dissolving 1 mg in 20 mL of methanol, and then the wavelength of greatest absorption of each compound was obtained by scanning between wavelengths from 200 nm to 500 nm. From the stock solution, six dilutions were prepared (dilution factor: 2.5), and the absorbance reading was performed in quartz cuvettes (10 mm optical path) in the UV-VIS spectrophotometer (Femto 800XI) at the previously determined wavelength. With the values obtained, a calibration curve with linear regression was made, in which the linearity of the analytical method is observed, with values of correlation coefficient (p > 0.95).
The compound was dissolved in a phosphate buffer solution (pH 7.4), prepared according to the Brazilian Pharmacopoeia (Vol.1) to obtain a supersaturated solution. The supersaturated aqueous solution was kept under stirring for 4 hours at 37°C and then the sample was filtered on a 0.45 μm filter to carry out the reading at the corresponding wavelength of the compound. The solubility was then determined through the equation of the straight line obtained by the linear regression of the calibration curve of each compound [19].

[6] = system: peritoneal macrophages infected with L. major LV39; test: Nitrite measurement (Griess reaction) in infected macrophages; assay type: cell-based, BALB/c mice; details: BALB/c macrophages infected with L. major LV39
Method: as §1, with “In addition, the linear regression analysis from the Kc values at employed concentrations was used to determine the IC50.” left out

[7] = LASSBio-1491 10 μmol/Kg/day, glucantime 30 μmol/Kg/day x 28 days, i.p.

- IC50 ([1]; Macrophage, amastigote LV39 in macrophages, 24 h): 8.3 ± 0.3 µM
- IC50 ([2]; Leishmania major, 48 h): 7.5 ± 0.3 µM
- IC50 ([3]; promastigote LV39, 48 h): 7.7 ± 0.1 µM
- IC50 ([4]; Macrophage, amastigote 5-ASKH in macrophages, 24 h): 7.3 ± 0.6 µM
- solubility at 4 h [5]: 8.72 µM and 3.06 µg/mL
SMILES: O=C(N/N=C/c1ccc([N+](=O)[O-])o1)NNC(=O)c1ccc(Cl)cc1 [LASSBio-1491]
- Emax ([1]; amastigote LV39, read-out: Maximum effect (% ± S.E.M.)): 60.2 ± 1.9%
- IC50 (spleen cells): > 100 µM
- times less potent than pentamidine [2]: about 10 times
- Emax ([2]; Leishmania major, read-out: Maximum effect (% ± S.E.M.)): 68.4 ± 0.1%
- lesion size (L. major LV39; [7]): reduced lesion size only between days 7 and 17
- parasite load in draining lymph node (L. major LV39; [7]): decreased parasite load
- parasite load in infected ear (L. major LV39; [7]): decreased parasite load
- times more efficient than glucantime (L. major LV39; similar effect at a dose three times lower): 3 times
- Emax ([3]; promastigote LV39, read-out: Maximum effect (% ± S.E.M.)): 68.3 ± 0.2%
- Emax ([4]; amastigote 5-ASKH, read-out: Maximum effect (% ± S.E.M.)): 67.5 ± 4.8%
- NO production (nitrite) [6]: increased NO production
